The record followed here is patent EP3733658B1, “PRENYLATED BENZOPYRANES AS PPAR AGONISTS” (Universitat de València, priority 2017, dated 2019).

For one series, the system named is ob/ob mice. Kind of series: Treatment of ob/ob mice: blood glucose. It is filed as in vivo.
A further series deals with HUVEC. Briefly: Annexin V / propidium iodide flow cytometry of apoptosis and survival, HUVEC. The settings on record: tested concentrations including 100 µM, compared with the vehicle. It is filed as cell-based, human. The protocol: In addition, the apoptosis and survival rate for human neutrophils and HUVEC was determined by double staining with annexin V and propidium iodide (PI) by flow cytometry.
Cytofluorometric analysis of apoptosis and survival. The kit FITC Annexin V Apoptosis Detection kit (BD Bioscience, San Jose, CA) was used. The staining protocol and all the reagents were supplied with the commercial kit. HUVEC were separated from the culture flasks by accutase (StemPro® Accutase® Cell dissociation reagent, Thermofischer Scientific Waltham, MA). Both cell types were incubated at 37°C for 24h in the presence or absence of the test compounds. Confluent HUVEC and freshly isolated neutrophils were washed, resuspended in binding buffer 1x (1 × 10^6 cells/mL) and stained with annexin V conjugated with FITC and propidium iodide (PI) as described in the manufacturer's instructions. The cells were analyzed in a BD FACSVerse Flow Cytometer (BD Biosciences, San Jose, CA) and differentiated as early apoptosis cells (annexin V^+ and PI^-), late apoptosis cells and/or necrotic cells (annexin V^+ and PI^+), and live cells (annexin V^- and PI^-).

The subject of another series is MCP-1. Briefly: Treatment of ob/ob mice: MCP-1 mRNA in WAT by real-time PCR. The settings on record: oral, 30 mg/Kg/d, 4 days. It counts as in vivo. As for the experimental part:
6 animals were used in each group in independent experiments (n=6).
The total RNA was extracted from mouse WAT by homogenization. Reverse transcription was performed with 1000 ng of total RNA using the inverse transcription kit TaqMan (Applied Biosystems, Thermo Fisher Scientific, Waltham, MA) and converted to cDNA by standard methods. The cDNA was amplified with specific feeders for the mouse monocytic chemoattractant protein 1 (MCP-1 or CCL2, Mm00441242_m1) in a Real Time PCR 7900HT apparatus (Applied Biosystems, Thermo Fisher Scientific, Waltham, MA) using Universal Master Mix (Applied Biosystems, Thermo Fisher Scientific, Waltham, MA). All feeders were designed by Applied Biosystems. The relative quantification of the various transcriptions was determined by the 2^-ΔΔCt method using GAPDH (Applied Biosystems, Thermo Fisher Scientific, Waltham, MA) as endogenous and normalized control for the control group.
(In general: Real-time PCR tracks product formation cycle by cycle.)

Series [1] relates to human umbilical vein endothelial cells (HUVEC). Kind of series: MTT colorimetric cell viability assay, HUVEC. It counts as cell-based. The settings on record: 30 µM, 24 h. The protocol: To evaluate potential adverse effects (cytotoxicity) of the compounds of the invention, the compounds 1 and 2 for use according to the present invention, compound 8 of the invention, and the reference compounds were evaluated at concentrations of 30 and 100 µM in human neutrophils (Fig. 1A) and primary cultures of human umbilical vein endothelial cells (HUVEC) (Fig. 1B) using two different techniques: MTT colorimetry assay and flow cytometry analysis for cellular apoptosis and survival. In addition, the synthetic compound 9 of the invention was evaluated at 10, 30 and 100 µM (Fig. 2).
MTT assay. The viability of neutrophils and HUVEC was determined by the MTT colorimetric assay MTT (3(4,5-dimethylthiazol-2-yl)-2,5-diphenyltetrazoyl bromide).
Human umbilical vein endothelial cells (HUVEC) were isolated with the collagenase treatment and maintained in a human specific endothelial base medium (EBM-2) supplemented with endothelial growth medium (EGM-2) and 10% FCS. Cells of the first passage were cultured until their confluence in 24-well plates. Before starting each experiment, the cells were incubated for 24 h in a medium containing 1% FBS.
100 µL of neutrophils and HUVEC (2 × 10^5 cells/mL) suspension in supplemented RPMI medium were added to each well of a 96-well plate. The cells were incubated in absence and/or presence of the compounds at 37°C for24h. An MTT solution was prepared (2 mg/mL in PBS). 100 µL of the MTT solution were added to each well and incubated at 37°C for an additional 3 h. The supernatants were discarded and 200 µL of DMSO were added to each well to dissolve the precipitated formazan. The optical densities at two wavelengths (560 and 630 nm) were measured in a spectrophotometer (Infinite M200, Tecan, Mannedorf, Switzerland).

In another series the target is T1, RXRα/PPARγ interaction (Homo sapiens, UniProt P37231).
T1 construct: endogenous in cells; host or cells: HUVEC
T1 sequence (P37231 29-505 limits assumed): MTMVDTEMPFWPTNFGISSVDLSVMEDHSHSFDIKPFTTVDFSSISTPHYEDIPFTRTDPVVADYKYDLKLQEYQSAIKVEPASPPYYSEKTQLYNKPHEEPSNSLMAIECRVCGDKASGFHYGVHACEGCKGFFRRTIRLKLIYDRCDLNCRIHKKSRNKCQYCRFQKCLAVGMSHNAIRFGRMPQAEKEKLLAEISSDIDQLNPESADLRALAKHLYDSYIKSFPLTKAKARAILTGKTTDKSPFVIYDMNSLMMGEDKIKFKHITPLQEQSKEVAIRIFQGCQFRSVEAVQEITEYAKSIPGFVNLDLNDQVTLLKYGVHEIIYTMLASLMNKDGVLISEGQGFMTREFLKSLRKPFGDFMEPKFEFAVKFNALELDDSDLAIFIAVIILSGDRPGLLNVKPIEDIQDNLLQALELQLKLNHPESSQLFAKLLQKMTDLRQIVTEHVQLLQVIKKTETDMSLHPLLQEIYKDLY
T1 sequence (P19793 1-462 partner): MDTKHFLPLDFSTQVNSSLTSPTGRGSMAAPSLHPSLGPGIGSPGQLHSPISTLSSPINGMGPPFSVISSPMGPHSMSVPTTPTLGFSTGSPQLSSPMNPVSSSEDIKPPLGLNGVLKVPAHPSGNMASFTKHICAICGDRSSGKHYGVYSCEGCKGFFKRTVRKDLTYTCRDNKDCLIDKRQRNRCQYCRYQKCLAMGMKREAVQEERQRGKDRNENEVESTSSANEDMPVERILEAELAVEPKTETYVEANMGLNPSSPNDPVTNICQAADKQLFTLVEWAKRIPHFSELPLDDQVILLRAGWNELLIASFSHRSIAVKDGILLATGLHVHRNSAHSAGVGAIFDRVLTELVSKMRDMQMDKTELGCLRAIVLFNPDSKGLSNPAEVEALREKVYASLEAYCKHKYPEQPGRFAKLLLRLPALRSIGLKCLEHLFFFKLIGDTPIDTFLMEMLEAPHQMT
Kind of series: Immunoprecipitation of PPARγ followed by Western blot for RXRα in HUVEC. The settings on record: pretreated HUVEC. It is filed as cell-based.

Protocol for RXRα/PPARγ interaction: For the immunoprecipitation, the protein extracts were obtained in 50 mM Tris-HCl (pH 8), 150 mM NaCl, 1% Nonidet P-40 and protease (1 mM PMSF, 40 µg/mL aprotinin and 40 µg/mL leupeptin) and phosphatase inhibitors. Then the protein extracts (~200 µg) were incubated with 5 µg of an antibody against PPARγ. Immunocomplexes were precipitated using an anti-rabbit IgG beads (cat# 8800, eBioscience, San Diego, CA) and suspended in a sample buffer with 50 mM dithiotreitol (DTT). Western blot was performed with an antibody against RXRα and the membranes were incubated with the secondary HRP-conjugate Rabbit TrueBlot (eBioscience, San Diego, CA) as secondary antibody. Chemoluminescence signals were developed with ECL (GE Healthcare, Madrid, Spain).

In the case of `CCOC(=O)CCC(C)=CCCC1(C)CCc2cc(OCc3ccc(F)cc3)ccc2O1` (stereo not shown) [Compound 9], the “glucose blood level, day 0 (before treatment)” value with ob/ob mice (group given 30 mg/Kg/d) was 261 mg/dL. Also, in the series on ob/ob mice (oral, 30 mg/Kg/d), the “glucose blood level after 4 days” value is listed as 194 mg/dL. Also, the “decrease in glucose blood levels compared to day 0” value with ob/ob mice (oral, 30 mg/Kg/d, after 4 days) was 20%. Further, the toxicity entry with HUVEC was “absence of toxicity”. Moreover, the “expression of MCP-1 in WAT” value in the series on MCP-1 was “significantly reduced”. The “cytotoxicity (MTT), with respect to the vehicle” value in series [1] was 12%.
As to `C/C(=C\CCC1(C)CCc2cc(O)cc(C)c2O1)CC/C=C(\C)C(=O)O` (stereo not shown) [Polycerasoidol, 1, polycerasoidol], the RXRα/PPARγ interaction result at RXRα/PPARγ interaction is on record as “increased RXRα/PPARγ interaction”.
